According to patent US6949250B2, “Selective algaecides for control of cyanochloronta” (The United States of America as represented by the …, priority 2002, dated 2005):

Columns and labels:
2-methylisoborneol [1] = experiment: DNA1-19-1 first pond efficacy study (limnocorrals): MIB levels; format: in vivo; details: 2 μM
Oscillatoria perornata = experiment: DNA1-19-1 first pond efficacy study (limnocorrals): O. perornata abundance; format: in vivo
green algae [2] = experiment: DNA1-19-1 first pond efficacy study (limnocorrals): green algae abundance; format: in vivo, green algae (Division Chlorophyta); details: 2 μM, until 10 days after application, LSD
Procedure: (§1) The method described by Schrader et al. (2000) was used to determine the potential for using the anthraquinone derivatives as selective algicides in catfish aquaculture ponds. All catfish ponds used in efficacy tests were maintained using commercial pond management practices and were located at the Thad Cochran Pond Facility, Mississippi State University, Stoneville, Miss. Anthraquinone analogs were dissolved in deionized water before application to water within the limnocorrals.
(§2) Limnocorrals in which test compound was applied to the enclosed water were randomly selected, and control (no test compound applied) limnocorrals were included in each efficacy study. For each sampling, two water samples (250 mL) were obtained from within each limnocorral (approximately 6-8 cm below the water surface and from opposite sides of each limnocorral) and mixed together in a 500 mL sample bottle to provide a representative sample of the water contained within the limnocorral.
Three pond efficacy studies were conducted with DNA1-19-1. […] To perform phytoplankton identification and enumeration, water samples were processed by preserving 50-mL subsamples with Lugol's solution and storing them at 4° C. until they could be identified and counted as “natural units” (i.e., colonies, filaments, or unialgal cells) using a Sedgewick-Rafter counting chamber at 300× magnification. […]

2-methylisoborneol [3] = experiment: DNA2-59-1 second pond efficacy study: MIB levels; format: in vivo; details: 0.3 μM, after three days
Procedure: as §1, §2
(§3) In the second efficacy test with DNA2-59-1, six limnocorrals (1.53 m in diameter and 1.53 m high) were placed in a 0.1-ha earthen pond containing a heavy bloom of O. perornata. The same delay in mixing the water within the limnocorrals used in the first efficacy study was utilized. Water within three randomly selected limnocorrals received an application rate of 0.3 μM DNA2-59-1, and the other three limnocorrals were controls. […]

diatoms [4] = experiment: DNA2-59-1 second pond efficacy study: diatom abundance; format: in vivo, diatoms (division Chromophyta, class Bacillariophyceae); details: 0.3 μM
Procedure: as §1, §2, §3

diatoms [5] = experiment: DNA2-59-1 third pond efficacy study: diatom abundance; format: in vivo; details: 0.3 μM, from three days after application
Procedure: as §1, §2
(§4) For the third efficacy test with DNA2-59-1, twelve limnocorrals (2.44 m in diameter and 1.53 m high) were placed in a 4-ha earthen pond containing a bloom of O. perornata. […]

green algae [6] = experiment: DNA2-59-1 first pond efficacy study: green algae abundance; format: in vivo; details: first study, 0.1, 0.3 and 1 μM
Procedure: as §1
Limnocorrals in which test compound was applied to the enclosed water were randomly selected, and control (no test compound applied) limnocorrals were included in each efficacy study. […]
In the first study, application rates of 0.1 μM (37.7 μg/L), 0.3 μM ([…]), and 1.0 μM (377 μg/L) of DNA2-59-1 were tested using limnocorrals (three replicates per concentration) that were of the same type used for testing DNA1-19-1. […] Water samples were also analyzed to determine the persistence of DNA2-59-1 in the pond water, and this analysis was performed by using high-pressure liquid chromatography (HPLC) (method and results are described later).

2-methylisoborneol [7] = experiment: DNA2-59-1 third pond efficacy study: MIB levels; format: in vivo; details: 0.3 μM, 24 hours after application
Procedure: as §1, §2, §4

green algae [8] = experiment: DNA2-59-1 third pond efficacy study: green algae abundance; format: in vivo; details: 0.3 μM, from three days after application
Procedure: as §1, §2, §4

Row | Structure (SMILES) | Levels of MIB after reduction (2-methylisoborneol [1]) | time MIB levels remained much lower than in the controls (2-methylisoborneol [1]) | Levels of MIB before reduction (2-methylisoborneol [1]; ng/mL (ppb)) | selectively reducing numbers of O. perornata and MIB levels in pond water (result in words) (Oscillatoria perornata; applied at 2 μM) | Numbers of filaments of O. perornata (result in words) (Oscillatoria perornata; first study, 2 μM, numbers began to increase within 3 days) | Numbers of green algae, treated vs controls (result in words) (green algae [2]) | Levels of MIB (result in words) (2-methylisoborneol [3]) | diatoms (result in words) (diatoms [4]) | Numbers of diatoms vs control limnocorrals (result in words) (diatoms [5]) | Numbers of green algae compared to controls (result in words) (green algae [6]) | Levels of 2-methylisoborneol (result in words) (2-methylisoborneol [7]) | Numbers of green algae vs control limnocorrals (result in words) (green algae [8])
1 | CCN(CC)CCCC(C)NCc1ccc2c(c1)C(=O)c1ccccc1C2=O.O=P(O)(O)O.O=P(O)(O)O (stereo not drawn) [DNA1-19-1, 2-[methylamino-N-(1′-methyl-4′-N,N-diethylaminobutyl)]-9,10-anthraquinone diphosphate] | ~970 ng/mL | 8 days | 15,250 ng/mL | effective | significantly reduced | not significantly different |  |  |  |  |  | 
2 | CC(C)NCc1ccc2c(c1)C(=O)c1ccccc1C2=O [DNA2-59-1, 2-[methylamino-N-(1′-methylethyl)]-9,10-anthraquinone monophosphate] |  |  |  |  |  |  | significantly reduced | not significantly affected | significantly higher | not significantly affected | significantly reduced | significantly higher
